Experimental data: US20220047678A1, “Combination Therapy for Treatment of Liver Disease” (Gilead Sciences, Inc., priority 2020, published 2022)

Columns and labels:
[1] = Safety assessments (adverse events, laboratory abnormalities, vital signs) in 24-week open-label clinical study; assay type: in vivo, human
Description: This is a proof of concept, open-label study evaluating the safety, tolerability, and efficacy of monotherapy and combination regimens in subjects with NASH. Subjects meeting the study's entry criteria are randomly assigned in a 1:1:1:1:1 ratio to 1 of 5 treatment groups, with approximately 20 subjects in each group, as shown in the FIG. 2. Randomization is stratified by the presence or absence of type 2 diabetes mellitus, as determined by medical history or based on the Screening laboratory values if previously undiagnosed (hemoglobin A1c [HbA1c]≥6.5%). The study may last up to 35 weeks, which includes a 2-week Screening period, a 2 week Pre-Treatment period, up to a 24-week Treatment period, and a 7-week Follow-Up period.
Study drug dosing and administration is as follows, based on treatment group randomization as summarized in FIG. 2: • Treatment Group A: Semaglutide administered subcutaneously with pre-filled pen-injector once weekly. • Treatment Group B: Semaglutide administered subcutaneously with pre-filled pen-injector once weekly, one firsocostat 20 mg tablet, administered orally once daily without regard to food. • Treatment Group C: Semaglutide administered subcutaneously with pre-filled pen-injector once weekly, one cilofexor 30 mg tablet, administered orally once daily without regard to food. • Treatment Group D: Semaglutide administered subcutaneously with pre-filled pen-injector once weekly, one cilofexor 100 mg tablet, administered orally once daily without regard to food. • Treatment Group E: Semaglutide administered subcutaneously with pre-filled pen-injector once weekly, one firsocostat 20 mg tablet administered orally once daily and one cilofexor 30 mg tablet administered orally once daily, both without regard to food.
Semaglutide was administered by subcutaneous injection once weekly with a prefilled pen-injector and was initiated at a starting dose of […], which was increased at 4-week intervals (to 0.5 mg, 1.0 mg, and 1.7 mg) until the recommended target dose of 2.4 mg was reached (from week 17 onwards). Patients who could not tolerate the planned dose-escalation schedule were encouraged to extend any single dose step for a maximum of one additional week, and to re-attempt dose escalation to 2.4 mg at least once. Cilofexor and firsocostat were given orally once daily with or without food.
Safety assessments included adverse events, clinical laboratory assessments, vital signs, electrocardiograms (ECG), and physical examination. Clinical and laboratory adverse events were coded using the Medical Dictionary for Regulatory Activities (MedDRA), version 23.0.
Safety analyses were performed on the safety analysis set, which included all patients who took at least one dose of any study drug. Efficacy analyses were performed on the full analysis set (FAS), which included all randomized patients who received at least one dose of any study drug. Since all dosed subjects were randomized, these two analysis sets included the same patients.

[2] = Serum lipids, change from baseline to week 24; assay type: in vivo, human; settings: LS mean
Procedure: In general, subjects fast (no food or drink, except water) for approximately 10 hours prior to the blood sample collection.
Additional tests include HIV-1 (reflex to HIV-1 RNA), HBV (HBsAg), HCV (reflex to HCV RNA) serology, homeostasis model assessment of Insulin resistance (HOMA-IR, based on fasting glucose and insulin), eGFR as calculated by MDRD, HbA1c, C-peptide, calcitonin, insulin, lipid panel, genomic sample collection, ELF™ Test, and FibroTest®. Biomarker tests include, but are not limited to C-reactive protein (CRP), NMR LipoProfile®, apolipoproteins, and adiponectin.
Imaging assessments (MRI-PDFF, liver stiffness by 2-D magnetic resonance elastography [MRE] and TE) were conducted at screening (or within 4 weeks prior to screening), and at weeks 12 and 24. TE was performed by experienced operators, and MRI-PDFF and MRE images were analyzed by a central reader as previously described [Patel et al. Hepatology. 2020; 72(1):58-71; Loomba et al. Gastroenterology. 2018; 155(5):1463-1473; Loomba et al. Hepatology. 2020 Nov. 10. doi: 10.1002/hep.31622]. Serum samples were collected at screening, baseline, and every 4 weeks through to week 24 for clinical laboratory values; blood biomarkers were assessed at screening, baseline, and weeks 12 and 24.
All protocol-defined, efficacy analyses were exploratory in nature and descriptive statistics are provided. Comparative analyses between combination regimens and semaglutide monotherapy were conducted post-hoc. For evaluation of changes from baseline to week 24, analysis of covariance (ANCOVA) with adjustment for baseline value and diabetes status was used, and least-squares (LS) means, LS mean differences, associated 95% confidence intervals (CI), and p-values were calculated. Proportions of binary responders were compared by Fisher's exact test.

For `CC[C@H](C)[C@H](NC(=O)[C@H](Cc1ccccc1)NC(=O)[C@H](CCC(=O)O)NC(=O)[C@H](CCCCNC(=O)COCCOCCNC(=O)COCCOCCNC(=O)CC[C@H](NC(=O)CCCCCCCCCCCCCCCCC(=O)O)C(=O)O)NC(=O)[C@H](C)NC(=O)[C@H](C)NC(=O)[C@H](CCC(N)=O)NC(=O)CNC(=O)[C@H](CCC(=O)O)NC(=O)[C@H](CC(C)C)NC(=O)[C@H](Cc1ccc(O)cc1)NC(=O)[C@H](CO)NC(=O)[C@H](CO)NC(=O)[C@@H](NC(=O)[C@H](CC(=O)O)NC(=O)[C@H](CO)NC(=O)[C@@H](NC(=O)[C@H](Cc1ccccc1)NC(=O)[C@@H](NC(=O)CNC(=O)[C@H](CCC(=O)O)NC(=O)C(C)(C)NC(=O)[C@@H](N)Cc1cnc[nH]1)[C@@H](C)O)[C@@H](C)O)C(C)C)C(=O)N[C@@H](C)C(=O)N[C@@H](Cc1c[nH]c2ccccc12)C(=O)N[C@@H](CC(C)C)C(=O)N[C@H](C(=O)N[C@@H](CCCNC(=N)N)C(=O)NCC(=O)N[C@@H](CCCNC(=N)N)C(=O)NCC(=O)O)C(C)C` [Semaglutide 2.4 mg, Semaglutide], the Abdominal distension ([1]; human, in vivo) was 0 n, the Gastroenteritis ([1]; human, in vivo) was 0 n and the Gastroesophageal reflux disease ([1]; human, in vivo) was 0 n. The Hypoglycaemia ([1]; human, in vivo) was 0 n, the “Laboratory abnormalities, Grade 3” value ([1]; human, in vivo) was 0 n and the “Laboratory abnormalities, Grade 4” value ([1]; human, in vivo) was 0 n. For the same compound, the “Pruritus (adverse event of interest)” value ([1]; human, in vivo) was 0 n, the “Serious adverse events (nature)” value ([1]; human, in vivo) was “grade 3 diarrhea and vomiting” and the Death ([1]; patients) was 0 n. For the same compound, the “HDL cholesterol, least squares mean change from baseline to week 24” value [2] was -1 mg/dL, the “LDL cholesterol, least squares mean change from baseline to week 24” value [2] was -9 mg/dL and the “Total cholesterol, least squares mean change from baseline to week 24” value [2] was -15 mg/dL. The “Triglycerides, least squares mean change from baseline to week 24” value [2] was -28 mg/dL and the “VLDL cholesterol, least squares mean change from baseline to week 24” value [2] was -7 mg/dL.
